Test results from patent US9193744B2, “Heterocyclic nuclear hormone receptor modulators” (AbbVie Inc., priority 2012, dated 2015).
Where two headings read alike, the source gives them in different places.

Key:
IL-6 = test: A549 Cell Assay to Measure Inflammation Markers (inhibition of IL-1β-induced IL-6); assay type: cell-based; conditions: Homo sapiens
Experimental: A549 Cell Assay to Measure Inflammation Markers
A549 cells were seeded (3E4 cells/well) in 96-well assay plates in culture medium (100 μL/well., F-12 K base media, supplemented with 10% FBS and 100 μ/mL-100 μg/mL Pen-Strep.) After overnight culture in an incubator set to 37° C., 4.9% CO2, and 90% humidity, media was removed from adherent cells by aspiration and replaced with 100 μL/well Assay Medium (F-12 K base media supplemented with 5% charcoal stripped calf sera and 100 U/mL-100 μg/mL Pen-Strep.) Compounds were prepared in DMSO and serial diluted (1:3, 1:4, or 1:5) with DMSO in Dilution Plate(s) to give 10 dilution points for each compound tested. Further dilution (1:250) of compound was made into assay medium and 50 μL/well diluted drug or DMSO/media control was applied to cells. After a 1 h pre-incubation in a temperature, CO2, and humidity controlled incubator, set to 37° C., 50 μL/well of 4 ng/mL IL-1β diluted in assay media, was applied to cultures. Assay plates, with a final volume of 200 μL/well and final concentrations of 0.1% DMSO and 1 ng/mL IL-1β were returned to incubator for a four h incubation period. Next, plates were spun at 183 g (1000 rpm in Beckman/Coulter Allegra 6KR centrifuge) for 10 min. Cell-free supernatant (150 μL/well) was collected and IL-6 was measured by MSD kit, following protocol of manufacturer, and using MSD SECTOR Imager 6000 instrument. Potency of compounds to inhibit IL-6 was determined using the percent reduction of measured IL-6 in wells with compound compared to control wells without drug, and relative to (100% inhibition) positive control compound of 1 μM prednisolone. Results were represented as IC50 and Emax values. To verify that viable cell numbers were similar across plate(s), and not confounding compound IC50 data interpretation, the remaining 50 μL/well of cells and media (after removal of supernatant) were used to run Cell Titer-Glo Assay per directions of manufacturer.

[1] = molecular target: T1, Glucocorticoid Receptor (GR) (Homo sapiens, UniProt P04150); test: GR Fluorescence Polarization Assay (PolarScreen Glucocorticoid Receptor Competitor Assay, Red); conditions: fluorescence polarization binding ranges
T1 construct: purchased Invitrogen P2893
T1 sequence (P04150 1-777): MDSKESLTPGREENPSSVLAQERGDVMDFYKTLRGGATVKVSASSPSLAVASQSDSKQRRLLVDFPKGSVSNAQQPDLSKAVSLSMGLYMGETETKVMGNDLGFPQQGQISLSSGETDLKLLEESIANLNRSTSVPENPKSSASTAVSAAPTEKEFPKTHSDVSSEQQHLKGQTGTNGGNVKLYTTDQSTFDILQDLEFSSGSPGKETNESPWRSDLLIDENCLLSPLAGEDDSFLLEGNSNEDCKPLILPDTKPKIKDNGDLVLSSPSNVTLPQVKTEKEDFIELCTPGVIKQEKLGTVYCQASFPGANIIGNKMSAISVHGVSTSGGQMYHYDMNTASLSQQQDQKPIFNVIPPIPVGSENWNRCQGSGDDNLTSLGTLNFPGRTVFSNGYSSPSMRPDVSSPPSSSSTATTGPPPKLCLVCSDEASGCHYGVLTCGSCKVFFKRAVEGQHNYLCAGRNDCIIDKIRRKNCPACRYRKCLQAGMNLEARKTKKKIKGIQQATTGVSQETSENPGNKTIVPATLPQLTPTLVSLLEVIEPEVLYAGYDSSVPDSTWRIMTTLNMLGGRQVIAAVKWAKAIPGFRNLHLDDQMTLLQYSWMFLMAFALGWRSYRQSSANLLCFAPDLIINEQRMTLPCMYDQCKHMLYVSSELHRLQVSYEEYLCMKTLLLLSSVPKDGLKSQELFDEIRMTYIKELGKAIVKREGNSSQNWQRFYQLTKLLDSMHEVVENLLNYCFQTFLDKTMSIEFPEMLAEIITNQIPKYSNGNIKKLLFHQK
Experimental: Fluorescence polarization assays were carried out using the PolarScreen™ Glucocorticoid Receptor Competitor Assay, Red from Invitrogen (P2893). The assay buffer was prepared according to the manufacturer's protocol and used to dilute the fluorescent glucocorticoid and GR. Compounds were prepared and serial diluted 1:4 in DMSO. Compound, fluorescent glucocorticoid and GR were added in a final volume of 20 μL and incubated overnight at 4° C. Fluorescent polarization was measured on the PerkinElmer Envision®. Fluorescence polarization binding ranges measured using GR Fluorescence Polarization Assay: […]

[2] = A549 cells, read-out: A549 cell assay
[3] = A549, read-out: A549 cell assay

Compound | IC50 (IL-6; [2]) | IC50 [1] | IC50 (IL-6; [3])
C[C@@]1(O)CC[C@@]2(Cc3ccccn3)c3cc4cnn(-c5ccc(F)cc5)c4cc3CCC[C@H]2C1 (single isomer, unassigned) [Example 15] | < 0.1 µM | < 0.1 µM | –
C[C@]1(O)CC[C@]2(Cc3ccccn3)c3cc4cnn(-c5ccc(F)cc5)c4cc3CCC[C@@H]2C1 (single isomer, unassigned) [Example 16] | < 0.1 µM | < 0.1 µM | –
N#C[C@@]12CC[C@](O)(C(F)(F)F)C[C@H]1CCCc1cc3c(cnn3-c3ccc(F)cc3)cc12 (single isomer, unassigned) [Example 72] | 0.1 to 1 µM | < 0.1 µM | –
N#C[C@]12CC[C@@](O)(C(F)(F)F)C[C@@H]1CCCc1cc3c(cnn3-c3ccc(F)cc3)cc12 (single isomer, unassigned) [Example 73] | – | 0.1 to 1 µM | > 10 µM
N#CC[C@@]12CC[C@](O)(C(F)(F)F)C[C@H]1CCCc1cc3c(cnn3-c3ccc(F)cc3)cc12 (single isomer, unassigned) [Example 81] | – | < 0.1 µM | < 0.1 µM
CC(=O)NC[C@]12CC[C@@](O)(C(F)(F)F)C[C@@H]1CCCc1cc3c(cnn3-c3ccc(F)cc3)cc12 (single isomer, unassigned) [Example 83] | 0.1 to 1 µM | 0.1 to 1 µM | –
CC[C@@]12CC[C@](O)(C(F)(F)F)[C@@H](O)[C@@H]1CCCc1cc3c(cnn3-c3ccc(F)cc3)cc12 (single isomer, unassigned) [Example 96] | < 0.1 µM | < 0.1 µM | –
CC[C@]12CC[C@@](O)(C(F)(F)F)[C@H](O)[C@H]1CCCc1cc3c(cnn3-c3ccc(F)cc3)cc12 (single isomer, unassigned) [Example 97] | < 0.1 µM | < 0.1 µM | –
CC[C@]12CC[C@@](O)(C(F)(F)F)C=C1CCCc1cc3c(cnn3-c3ccc(F)cc3)cc12 (single isomer, unassigned) [Example 107] | 0.1 to 1 µM | < 0.1 µM | –
C#C[C@@]1(O)CC[C@@]2(CC)c3cc4cnn(-c5ccc(F)cc5)c4cc3CCC[C@@H]2C1 (single isomer, unassigned) [Example 109] | < 0.1 µM | < 0.1 µM | –
C#C[C@]1(O)CC[C@]2(CC)c3cc4cnn(-c5ccc(F)cc5)c4cc3CCC[C@H]2C1 (single isomer, unassigned) [Example 110] | 0.1 to 1 µM | < 0.1 µM | –
CC[C@]12CC(=O)[C@@](O)(C(F)(F)F)C[C@@H]1CCCc1cc3c(cnn3-c3ccc(F)cc3)cc12 (single isomer, unassigned) [Example 116] | 0.1 to 1 µM | 0.1 to 1 µM | –
CC[C@@]12C[C@@](C)(O)[C@](O)(C(F)(F)F)C[C@H]1CCCc1cc3c(cnn3-c3ccc(F)cc3)cc12 (single isomer, unassigned) [Example 117] | < 0.1 µM | < 0.1 µM | –
CC[C@@]12C[C@@H](O)[C@](O)(C(F)(F)F)C[C@H]1CCCc1cc3c(cnn3-c3ccc(F)cc3)cc12 (single isomer, unassigned) [Example 119] | < 0.1 µM | < 0.1 µM | –
CC[C@@]12C[C@H](O)[C@](O)(C(F)(F)F)C[C@H]1CCCc1cc3c(cnn3-c3ccc(F)cc3)cc12 (single isomer, unassigned) [Example 121] | < 0.1 µM | < 0.1 µM | –
CC[C@]12C[C@@H](O)[C@@](O)(C(F)(F)F)C[C@@H]1CCCc1cc3c(cnn3-c3ccc(F)cc3)cc12 (single isomer, unassigned) [Example 122] | < 0.1 µM | < 0.1 µM | –
CC[C@]12CC[C@@](O)(C(F)(F)F)C[C@@H]1CCOc1cc3c(cnn3-c3ccc(F)cc3)cc12 (single isomer, unassigned) [Example 147] | 0.1 to 1 µM | < 0.1 µM | –

Second part, led by results:

IC50 (IL-6; [2]) | IC50 [1] | Compound | IC50 (IL-6; [3])
> 10 µM | 0.1 to 1 µM | CCOC[C@@]1(O)CC[C@]2(CC)c3cc4cnn(-c5ccc(F)cc5)c4cc3CCC[C@H]2C1 (single isomer, unassigned) [Example 10] | –
< 0.1 µM | < 0.1 µM | N#CC[C@@]1(O)CC[C@@]2(Cc3ccccn3)c3cc4cnn(-c5ccc(F)cc5)c4cc3CCC[C@H]2C1 (single isomer, unassigned) [Example 17] | –
< 0.1 µM | < 0.1 µM | N#CC[C@]1(O)CC[C@]2(Cc3ccccn3)c3cc4cnn(-c5ccc(F)cc5)c4cc3CCC[C@@H]2C1 (single isomer, unassigned) [Example 18] | –
0.1 to 1 µM | < 0.1 µM | N#CC[C@]12CC[C@@](O)(C(F)(F)F)C[C@@H]1CCCc1cc3c(cnn3-c3ccc(F)cc3)cc12 (single isomer, unassigned) [Example 82] | –
< 0.1 µM | < 0.1 µM | CC(=O)NC[C@@]12CC[C@](O)(C(F)(F)F)C[C@H]1CCCc1cc3c(cnn3-c3ccc(F)cc3)cc12 (single isomer, unassigned) [Example 84] | –
1 to 10 µM | < 0.1 µM | O=C(NC1CC1)[C@]12CC[C@@](O)(C(F)(F)F)C[C@@H]1CCCc1cc3c(cnn3-c3ccc(F)cc3)cc12 (single isomer, unassigned) [Example 87] | –
< 0.1 µM | < 0.1 µM | CC[C@@]12C[C@@H](O)[C@](O)(C(F)(F)F)C[C@@H]1CCCc1cc3c(cnn3-c3ccc(F)cc3)cc12 (single isomer, unassigned) [Example 98] | –
< 0.1 µM | < 0.1 µM | CC[C@]12C[C@H](O)[C@@](O)(C(F)(F)F)C[C@H]1CCCc1cc3c(cnn3-c3ccc(F)cc3)cc12 (single isomer, unassigned) [Example 99] | –
< 0.1 µM | < 0.1 µM | CC[C@@]12CC[C@](O)(C(F)(F)F)C[C@H]1CC[C@H](O)c1cc3c(cnn3-c3ccc(F)cc3)cc12 (single isomer, unassigned) [Example 104] | –
< 0.1 µM | < 0.1 µM | CC[C@@]12CC[C@](O)(C(F)(F)F)C=C1CCCc1cc3c(cnn3-c3ccc(F)cc3)cc12 (single isomer, unassigned) [Example 106] | –
0.1 to 1 µM | 0.1 to 1 µM | CC[C@@]12CC(=O)[C@](O)(C(F)(F)F)C[C@H]1CCCc1cc3c(cnn3-c3ccc(F)cc3)cc12 (single isomer, unassigned) [Example 115] | –
0.1 to 1 µM | < 0.1 µM | CC[C@]12C[C@](C)(O)[C@@](O)(C(F)(F)F)C[C@@H]1CCCc1cc3c(cnn3-c3ccc(F)cc3)cc12 (single isomer, unassigned) [Example 118] | –
< 0.1 µM | < 0.1 µM | CC[C@@]12CC[C@](O)(COC)C[C@@H]1CCCc1cc3c(cnn3-c3ccncc3)cc12 (single isomer, unassigned) [Example 123] | –
< 0.1 µM | < 0.1 µM | CC[C@@]12CC[C@](O)(COC)C[C@@H]1CCOc1cc3c(cnn3-c3ccnc(C)c3)cc12 (single isomer, unassigned) [Example 128] | –
< 0.1 µM | < 0.1 µM | CC[C@@]12CC[C@](O)(C(F)(F)F)C[C@H]1CCOc1cc3c(cnn3-c3ccc(F)cc3)cc12 (single isomer, unassigned) [Example 146] | –
< 0.1 µM | < 0.1 µM | C[C@@]1(O)CC[C@@]2(Cc3ccccn3)c3cc4cnn(-c5ccc(F)cc5)c4nc3CCC[C@H]2C1 (single isomer, unassigned) [Example 149] | –
